Data set [1] relates to honey bee workers (Apis mellifera). Kind of data set: 2-choice plate (petri-dish arena) assay, honey vs honey plus repellent candidate. It counts as in vivo. The conditions noted are these: 2-choice plate assay; for First choice Preference Index (repellent side): first visit and drink (repellent - solvent)/(repellent + solvent); for Honey consumption Preference Index (repellent side): plates where honeybees drank more honey from (repellent - solvent)/(repellent + solvent). The protocol: To date, we used capped brood frames from 10 colonies kept in three apiaries on campus at UC Riverside. After moving the brood (pupated honey bee larvae) into an observation frame inside an incubator overnight, we collected freshly emerged honey bee workers into groups of 80 per cage, providing them with a small piece of wax foundation, 50% sugar water and tap water ad libitum. Between day 3 and day 10 post emergence, we provided them with a protein dough. We removed dead workers and exchanged food every second day. After the bees reached foraging age (13-19 days post emergence), we grouped them into cages of 40 workers, each. To ensure that they were hungry enough to participate in our trials, we starved the workers before each experiment, depending on their age. Between 13 and 16 days of age, we wet-starved them for 17 hours by removing the sugar water tube from their cage, replacing it with an empty vial. Bees aged between 17 and 19 days were starved for six hours, only, to ensure their survival. On the day of the experiment, we removed dead bees and food vials from each cage, and placed the cage into a refrigerator, until the trial arena was ready, and the bees were cool enough to not move anymore.
To turn a 15 cm petri-dish into a 2-choice test arena, we taped a paper-grid on the outside of its bottom, establishing one side as honey (H) and the other as honey plus repellent candidate (HR, FIG. 3). Next, we pipetted 20 ul of pure acetone onto a 6 mm punch-out of filter paper, then let it evaporate in the fume hood for at least 30 min. We then taped the punch-out to the H-spot on the petri-dish. Repeating the process with 20 ul of the repellent candidate (5% in acetone), again letting the acetone evaporate for at least 30 Min, we stuck the now solely repellent-candidate-soaked punch-out onto the HR spot of the arena. To entice the bees to participate in our trial, we used a pipette and filled two 70 ul lids of PCR tubes full of pure, slightly warmed honey, until we observed a meniscus. We then taped one honey-filled lid onto the H, the other onto the HR filter paper, being careful not to disturb the meniscus.
We placed six prepared arenas onto a heating pillow turned onto level 1 (FIG. 2B), removed the cooled honey bee workers from the fridge and grouped between four and five bees into each plate, using insect tweezers. We filmed the bees for 60 Minutes, using an ipad (video at wide-angle, 0.5). To avoid glare, we staged the ipad on top of a plexi glass pane held by a cage constructed from pvc tubes, and covered with a double cotton sheet.
After each trial, we counted those plates, in which the honey wells had been touched as participating plates. We repeated the trials often enough to ensure participation in a minimum of five plates per repellent candidate. For each of the participating plates, we then screened each video to find the first bee that chose a honey well to drink from. The choice was recorded as either Honey (H) or Honey and repellent candidate (HR). We then calculated a Preference Index for each repellent candidate as follows: Number of repellent candidate choices minus number of honey choices) divided by sum of all choices).
The negative indexes indicate, that the honey bee workers did avoid the repellent candidates, but to varying degrees. The preference indexes show the first choices of honey bee workers (Apis mellifera) offered honey on filter paper with repellent-candidates versus honey only. Groups of 4-5 honeybee workers were placed in each 2-choice arena. Indexes are calculated per repellent candidate as (total number of repellent choices minus total number of solvent choices) divided by sum of all choices).
Preference Indexes for repellent candidates were determined in a manner similar to that described in Example 1. […]

Data set [2] can be described thus: TGA volatility at 40 degrees Celsius (Example 3). The conditions noted are these: isothermal at 40° C. for 900 minutes, slope from 800-900 minutes. It counts as physicochemical. The procedure: Volatility may be measured by Thermogravimetric Analysis (TGA) method. Volatility of bee repellent compounds is measured by TGA at 40° C. (i.e., as bee repellent wt % loss per min at 40° C.). In some variations, a “high volatility” bee repellent compound has a volatility greater than 1E-04 (wt % loss/min at 40° C.). In some variations, a “low volatility” bee repellent compound has a bee repellent volatility less than 1E-04 (wt % loss/min at 40° C.).
A TA Instruments TGA5500 was used to determine the volatility of bee repellent chemicals at 40 degrees Celsius. The sample purge was set for 25 mL/min and the balance purge is set for 10 mL/min. A 30 mg sample of the chemical was placed in the sample pan, the temperature was ramped up to 40° C. at a rate of 10° C./min and was held isothermal at 40° C. for 900 minutes. The slope was then determined from 800-900 minutes to determine its volatility. The volatility of bee repellent compounds were determined according to Table 6 below.

Data set [3] is described as follows: TGA volatility method of Example 4. The class given is physicochemical. The conditions noted are these: 40° C. isothermal for 15 hours, slope between 800-900 minutes. The protocol:
Two BR3.3A (liquid) and BR 4.5 (solid) bee repellents were used in this example for comparison. BR 3.3A has a relatively higher volatility compared to BR 4.5. A TGA method was developed to characterize volatility of bee repellents. The volatility was measured by setting up a TGA method. In the TGA pan, 0.30 mg+0.02 mg of the bee repellent of interest is applied in an even layer on the bottom of the TGA pan immediately before starting the measurement. The TGA is programmed to have a balance purge flow of 40 mL/min and a sample purge flow of 60 mL/min. The TGA ramps from 25° C. to 40° C. at a rate of 5° C. per minute. Then the temperature is held isothermally at 40° C. for 15 hours. After the test has been completed, the slope is calculated for the % loss per minute between 800-900 minutes and the results are reported. The smaller the slope, the less the volatility. The volatility of BR3.3A measured by the above method has a slope of −4.61E-03%/min, and the slope for BR4.5 is −1.81E-04%/min.

Another data set deals with honey bees. Kind of data set: Field study on flowering buckwheat patches, honey bee counts. It counts as in vivo. The conditions noted are these: emulsifiable concentrate sprayed at 4 kg/hectare; counts at 15 min, 30 min, 1 hour, 24 hours. The protocol: In this field study, 12 patches of buckwheat were planted, each measuring approximately 2 m×2 m in size in the agricultural operations field. When the flowering was estimated to be >50%, the experiments were performed. Each patch was divided into 2 approximately equal parts based on flowers by observation, one side for treatment spray and the other as control solvent (water) spray (FIG. 9A). The patches for different treatments were in a block design and the treatment side in a patch was randomly assigned as water or treatment (FIG. 9B). The test chemicals in emulsifiable concentrate form were dissolved in water in a tank to spray at the rate equivalent to 4 kg/hectare. After the spraying the numbers of honey bees present on each side of each patch was counted by 3 human observers at the following time points: 15 min, 30 min, 1 hour, 24 hours. The average number of bees at each time point were used to calculate the percentage decrease in numbers of bees on the treatment side relative to the water side and plotted (FIG. 9C).

Consider 22 compounds from patent US20250287942A1, “FORMULATIONS FOR REPELLING BEES AND OTHER INSECTS” (priority 2022, published 2025).

In the case of `CCOCCCNC(=O)c1ccccc1I` [BR 3.30, N-(3-ethoxypropyl)(2-iodophenyl) carboxamide], in data set [1], the “% honey left on repellent side” value is given as 80.45%, the “First choice Preference Index (repellent side)” value (“First choice Preference Index” for short) is listed as −0.733 and the “Honey consumption Preference Index (repellent side)” value (“Honey consumption Preference Index” below) is −0.8. For the compound `C/C(=C\C(=O)c1ccccc1)c1ccccc1` [BR 3.42, (2E)-1,3-Diphenyl-2-buten-1-on], in data set [1], the “First choice Preference Index” value was −0.772 and the “Honey consumption Preference Index” value is given as −0.727. For `CCCC(=O)CCc1ccccc1` [BR 3.4, 1-Phenyl-3-hexanone], in data set [1], the “% honey left on repellent side” value was found to be 99.72%, the “First choice Preference Index” value was −1 and the “Honey consumption Preference Index” value was −1. As for `CCNC(=O)c1cccc(Br)c1` [BR 3.47, 3-bromo-N-ethylbenzamide], in data set [1], the “% honey left on repellent side” value is recorded as 95.42%, the “First choice Preference Index” value is −1 and the “Honey consumption Preference Index” value was −0.6666.

With `CCOC(=O)CNc1ccccc1C#N` [Ethyl 2-(2-Cyanoanilino) acetate], the “TGA volatility @ 40° C. (weight loss %/min)” value in data set [2] came out at 4.04E−05 weight loss %/min.

Turning to `CCNC(=O)c1cccc(Br)c1` [3-bromo-N-ethylbenzamide], the “TGA volatility @ 40° C. (weight loss %/min)” value in data set [2] turned out to be 1.40E−04 weight loss %/min. For `CCOCCC(=O)N1CCc2ccccc21` [BR 3.9, 1-(2,3-Dihydro-1H-indol-1-yl)-3-ethoxy-1-propanone], in data set [1], the “First choice Preference Index” value is recorded as −0.6 and the “Honey consumption Preference Index” value is −0.8. Consider `COCCC(=O)Oc1ccccc1` [BR 3.1, Phenyl 3-methoxy-propanoate], for which, in data set [1], the “% honey left on repellent side” value amounted to 99.17%, the “First choice Preference Index” value is −0.8333 and the “Honey consumption Preference Index” value was −0.9166. `CCN(CC)C(=O)c1cccc(C)c1` [DEET, N,N-diethyl-meta-toluamide, reference compound]: the “TGA volatility @ 40° C. (weight loss %/min)” value in data set [2] amounted to 2.29E−03 weight loss %/min. Consider `CCCCCCCCC(C)=O` [2-Decanone, reference compound], for which, in data set [2], the “TGA volatility @ 40° C. (weight loss %/min)” value was found to be 0.1623 weight loss %/min. Still for that read-out and setting: next, `COCCC(=O)Oc1ccccc1` [Phenyl 3-methoxypropanoate]: 1.66E−02 weight loss %/min. `CCCCCC(=O)c1ccccc1` [BR 3.5, Hexanophenone]: in data set [1], the “% honey left on repellent side” value came to 100%, the “First choice Preference Index” value was −1 and the “Honey consumption Preference Index” value was −1. Take `CCCC(=O)CCc1ccccc1` [1-phenyl-3-hexanone]: in data set [2], the “TGA volatility @ 40° C. (weight loss %/min)” value was 1.37E−02 weight loss %/min. Take `CCCCCC(=O)c1ccccc1` [Hexanophenone]: in data set [2], the “TGA volatility @ 40° C. (weight loss %/min)” value worked out at 1.11E−02 weight loss %/min. `CC(C)OC(C(=O)c1ccccc1)c1ccccc1` (stereo not shown) [BR 4.5, 2-Isopropox y-1,2-diphenyl-ethanone]: in data set [1], the “First choice Preference Index” value was −0.8947 and the “Honey consumption Preference Index” value is listed as −0.8947. Besides, the “slope, % loss per minute (TGA volatility)” value in data set [3] is −1.81E-04 %/min. With `O=C(/C=C/c1cccnc1)c1ccncc1` [BR 4.4, 3-(3-Pyridinyl)-1-(4-pyridinyl)-2-propen-1-one], in data set [1], the “First choice Preference Index” value was −0.7142 and the “Honey consumption Preference Index” value was −0.7143.

As for `CCOC(=O)CC1CCc2ccccc21` (stereo not shown) [ethyl 2-(2,3-dihydro-1H-inden-1-yl) acetate], the “TGA volatility @ 40° C. (weight loss %/min)” value in data set [2] stood at 4.61E−03 weight loss %/min. For the compound `CCOC(=O)Cc1cccc(C)c1` [Ethyl m-Tolylacetate], the “TGA volatility @ 40° C. (weight loss %/min)” value in data set [2] came out at 2.73E−02 weight loss %/min. `CCOC(=O)CC1CCc2ccccc21` (stereo not shown) [BR 3.3A, ethyl 2-(2,3-dihydro-1H-inden-1-yl)acetate]: in data set [1], the “% honey left on repellent side” value is on record as 95.83%, the “First choice Preference Index” value is listed as −1 and the “Honey consumption Preference Index” value is −1. For the same compound, the “slope, % loss per minute (TGA volatility)” value in data set [3] is given as −4.61E-03 %/min.

In the case of `CCOC(=O)c1ccccc1I` [Ethyl 2-iodobenzoate], the “TGA volatility @ 40° C. (weight loss %/min)” value in data set [2] worked out at 6.66E−03 weight loss %/min. Turning to `CCOC(=O)c1ccccc1I` [BR 3.81, Ethyl 2-iodobenzoate], in data set [1], the “% honey left on repellent side” value is 99.17%, the “First choice Preference Index” value is given as −0.9 and the “Honey consumption Preference Index” value was −0.9. Further, the “numbers of honey bees on treatment side relative to water side” value with honey bees is reported as “showed a decrease in numbers of honey bees”. Turning to `CCOCCCNC(=O)c1ccccc1I` [N-(3-ethoxypropyl)-2-iodobenzamide], the “TGA volatility @ 40° C. (weight loss %/min)” value in data set [2] stood at 2.16E−05 weight loss %/min.
